# In PubChem BioAssay AID248 (DTP/NCI, 2004):
# Values joined by “and” are separate entries in the source; they are usually repeats but may differ in a detail not shown here. Equal entries are not always repeated. Toxic doses and inconclusive results are not listed.
# System: L1210 leukemia ip in BDF1 mice, survival T/C
# Experiment: NCI In Vivo Anticancer Drug Screen. Data for tumor model L1210 Leukemia (intraperitoneal) in B6D2F1 (BDF1) mice
# Conditions: endpoint: mean survival time, higher = longer survival
# Procedure, shortened: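 Tumor was transplanted into mice, which were then dosed with test compound or vehicle alone. Survival was recorded for each group, and the treated figure was expressed relative to the control figure.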
# [1] = dose: 100.0 mg/kg/injection, schedule: Q04DX003 (ip), vehicle: Klucel (hydroxypropylcellulose) (HPC)
# [2] = dose: 200.0 mg/kg/injection, schedule: Q04DX003 (ip), vehicle: Klucel (hydroxypropylcellulose) (HPC)
# [3] = dose: 400.0 mg/kg/injection, schedule: Q04DX003 (ip), vehicle: Klucel (hydroxypropylcellulose) (HPC)
# [4] = dose: 100.0 mg/kg/injection, schedule: Q01DX009 (ip), vehicle: saline with Tween-80
# [5] = dose: 5.0 mg/kg/injection, schedule: Q01DX001 (ip), vehicle: saline
# [6] = dose: 10.0 mg/kg/injection, schedule: Q01DX001 (ip), vehicle: saline
# [7] = dose: 20.0 mg/kg/injection, schedule: Q01DX001 (ip), vehicle: saline
# [8] = dose: 100.0 mg/kg/injection, schedule: Q01DX001 (ip), vehicle: other
# [9] = dose: 100.0 mg/kg/injection, schedule: Q04DX003 (ip), vehicle: saline
# [10] = dose: 200.0 mg/kg/injection, schedule: Q04DX003 (ip), vehicle: saline
# [11] = dose: 25.0 mg/kg/injection, schedule: Q01DX009 (ip), vehicle: saline with Tween-80
# [12] = dose: 50.0 mg/kg/injection, schedule: Q01DX009 (ip), vehicle: saline with Tween-80
# [13] = dose: 50.0 mg/kg/injection, schedule: Q01DX001 (ip), vehicle: carboxymethylcellulose (CMC)
# [14] = dose: 100.0 mg/kg/injection, schedule: Q01DX001 (ip), vehicle: carboxymethylcellulose (CMC)
smiles,measurement,setting,value
O=P(NCCCO)(OCc1ccccc1)N(CCCl)CCCl (centres undefined),T/C,"dose: 62.5 mg/kg/injection, schedule: Q01DX010 (ip), vehicle: saline",87 % of control
same,T/C,"dose: 125.0 mg/kg/injection, schedule: Q01DX010 (ip), vehicle: saline",98 % of control
same,T/C,"dose: 250.0 mg/kg/injection, schedule: Q01DX010 (ip), vehicle: saline",90 % of control
same,T/C,"dose: 250.0 mg/kg/injection, schedule: Q01DX Z (ip), vehicle: saline",95 % of control
same,T/C,"dose: 500.0 mg/kg/injection, schedule: Q01DX Z (ip), vehicle: saline",95 % of control
same,T/C,"dose: 750.0 mg/kg/injection, schedule: Q01DX Z (ip), vehicle: saline",118 % of control
c1ccc2nc(-c3cc4ccccc4s3)ccc2c1,T/C,"dose: 100.0 mg/kg/injection, schedule: Q01DX009 (ip), vehicle: saline sonified",96 % of control
same,T/C,[1],97 % of control
same,T/C,"dose: 200.0 mg/kg/injection, schedule: Q01DX009 (ip), vehicle: saline sonified",100 % of control
same,T/C,[2],95 % of control
same,T/C,"dose: 400.0 mg/kg/injection, schedule: Q01DX009 (ip), vehicle: saline sonified",103 % of control
same,T/C,[3],101 % of control
COc1ccc(O)c(C=O)c1,T/C,[4],108 % of control
CC(C)(C)OC(=O)CSC#N,T/C,[5],101 % of control
same,T/C,[6],95 % of control
same,T/C,[7],101 % of control
CCCCCCCCCCCCCCCCCCNC(=S)N/N=C/c1ccc(Cl)cc1Cl,T/C,"dose: 50.0 mg/kg/injection, schedule: Q04DX003 (ip), vehicle: other",91 % of control
same,T/C,[8],95 % of control
same,T/C,"dose: 100.0 mg/kg/injection, schedule: Q04DX003 (ip), vehicle: other",96 % of control
same,T/C,"dose: 200.0 mg/kg/injection, schedule: Q01DX001 (ip), vehicle: other",86 % of control and 92 % of control
same,T/C,"dose: 200.0 mg/kg/injection, schedule: Q04DX003 (ip), vehicle: other",93 % of control
COc1ccccc1NC(=O)c1ccco1,T/C,"dose: 12.5 mg/kg/injection, schedule: Q04DX002 (ip), vehicle: Klucel (hydroxypropylcellulose) (HPC)",102 % of control
same,T/C,"dose: 25.0 mg/kg/injection, schedule: Q04DX002 (ip), vehicle: Klucel (hydroxypropylcellulose) (HPC)",102 % of control
same,T/C,"dose: 50.0 mg/kg/injection, schedule: Q04DX002 (ip), vehicle: Klucel (hydroxypropylcellulose) (HPC)",97 % of control
same,T/C,"dose: 100.0 mg/kg/injection, schedule: Q04DX002 (ip), vehicle: Klucel (hydroxypropylcellulose) (HPC)",95 % of control
same,T/C,"dose: 200.0 mg/kg/injection, schedule: Q04DX002 (ip), vehicle: Klucel (hydroxypropylcellulose) (HPC)",106 % of control
same,T/C,"dose: 400.0 mg/kg/injection, schedule: Q04DX002 (ip), vehicle: Klucel (hydroxypropylcellulose) (HPC)",103 % of control
Cc1ccc(NC(=O)N(CCCl)N=O)c(C)c1,T/C,"dose: 10.0 mg/kg/injection, schedule: Q01DX009 (ip), vehicle: other",180 % of control
same,T/C,"dose: 16.0 mg/kg/injection, schedule: Q01DX009 (ip), vehicle: other",241 % of control
same,T/C,"dose: 24.0 mg/kg/injection, schedule: Q01DX009 (ip), vehicle: other",158 % of control
same,T/C,"dose: 25.0 mg/kg/injection, schedule: Q01DX001 (ip), vehicle: other",153 % of control
same,T/C,"dose: 50.0 mg/kg/injection, schedule: Q01DX001 (ip), vehicle: other",158 % of control
same,T/C,[8],101 % of control
CC(=O)OC1CCC2(C)C(=CCC3C2CCC2(C)C(C(C)N)CCC32)C1 (centres undefined),T/C,"dose: 100.0 mg/kg/injection, schedule: Q01DX001 (sc), vehicle: steriod suspending solution",90 % of control
same,T/C,"dose: 400.0 mg/kg/injection, schedule: Q01DX001 (sc), vehicle: steriod suspending solution",90 % of control
CCOP(=O)(OCC)O/N=C(/SC)C(C)C,T/C,[5],100 % of control
same,T/C,[6],111 % of control
same,T/C,[7],103 % of control
same,T/C,"dose: 40.0 mg/kg/injection, schedule: Q01DX001 (ip), vehicle: saline",100 % of control
same,T/C,"dose: 80.0 mg/kg/injection, schedule: Q01DX001 (ip), vehicle: saline",116 % of control
CC(C)(CCC(=S)N1CCOCC1)c1ccccc1,T/C,[1],101 % of control
same,T/C,[2],102 % of control
same,T/C,[3],102 % of control
O=C(O)C(=O)c1ccccc1,T/C,[9],92 % of control
same,T/C,[10],91 % of control
COc1ccc(/C=C2\SC(=O)NC2=O)cc1,T/C,[11],91 % of control
same,T/C,[12],104 % of control
same,T/C,[4],100 % of control
CC(=O)OCC1OC(Sc2cc(Cl)ccc2Cl)C(OC(C)=O)C(OC(C)=O)C1OC(C)=O (centres undefined),T/C,"dose: 100.0 mg/kg/injection, schedule: Q01DX001 (ip), vehicle: saline",100 % of control
same,T/C,"dose: 200.0 mg/kg/injection, schedule: Q01DX001 (ip), vehicle: saline",94 % of control
same,T/C,"dose: 400.0 mg/kg/injection, schedule: Q01DX001 (ip), vehicle: saline",100 % of control
S=c1cccc[nH]1,T/C,[1],101 % of control
same,T/C,[2],102 % of control
same,T/C,[3],96 % of control
CCc1cc2c(cc1C(=O)CBr)C(C)(C)CCC2(C)C,T/C,"dose: 6.25 mg/kg/injection, schedule: Q01DX009 (ip), vehicle: saline with Tween-80",103 % of control
same,T/C,"dose: 12.5 mg/kg/injection, schedule: Q01DX009 (ip), vehicle: saline with Tween-80",109 % of control
same,T/C,"dose: 12.5 mg/kg/injection, schedule: Q04DX003 (ip), vehicle: saline",100 % of control
same,T/C,"dose: 25.0 mg/kg/injection, schedule: Q04DX003 (ip), vehicle: saline",102 % of control
CCOC(=O)NNC(=O)c1ccccc1,T/C,"dose: 12.5 mg/kg/injection, schedule: Q01DX009 (ip), vehicle: alcohol",100 % of control
same,T/C,"dose: 25.0 mg/kg/injection, schedule: Q01DX009 (ip), vehicle: alcohol",90 % of control
same,T/C,"dose: 25.0 mg/kg/injection, schedule: Q04DX003 (ip), vehicle: alcohol",103 % of control
same,T/C,"dose: 50.0 mg/kg/injection, schedule: Q01DX009 (ip), vehicle: alcohol",89 % of control
same,T/C,"dose: 50.0 mg/kg/injection, schedule: Q04DX003 (ip), vehicle: alcohol",101 % of control
Oc1cc(O)c(CN(CCCl)CCCl)cc1CN(CCCl)CCCl,T/C,"dose: 5.5 mg/kg/injection, schedule: Q01DX009 (ip), vehicle: saline",115 % of control
same,T/C,"dose: 8.2 mg/kg/injection, schedule: Q01DX009 (ip), vehicle: saline",121 % of control
same,T/C,"dose: 18.75 mg/kg/injection, schedule: Q01DX009 (ip), vehicle: saline",103 % of control
same,T/C,[11],101 % of control
same,T/C,[13],115 % of control
same,T/C,[12],94 % of control
same,T/C,[14],115 % of control
same,T/C,[9],110 % of control
same,T/C,"dose: 200.0 mg/kg/injection, schedule: Q01DX001 (ip), vehicle: carboxymethylcellulose (CMC)",108 % of control
same,T/C,[10],92 % of control
same,T/C,"dose: 400.0 mg/kg/injection, schedule: Q01DX001 (ip), vehicle: carboxymethylcellulose (CMC)",123 % of control
same,T/C,"dose: 400.0 mg/kg/injection, schedule: Q04DX003 (ip), vehicle: saline",90 % of control
same,T/C,"dose: 800.0 mg/kg/injection, schedule: Q04DX003 (ip), vehicle: saline",100 % of control
OC1CCC2=C(C1)C1CCC2C1 (centres undefined),T/C,"dose: 12.5 mg/kg/injection, schedule: Q04DX003 (ip), vehicle: saline with Tween-80",96 % of control
same,T/C,"dose: 25.0 mg/kg/injection, schedule: Q04DX003 (ip), vehicle: saline with Tween-80",89 % of control
same,T/C,"dose: 50.0 mg/kg/injection, schedule: Q04DX003 (ip), vehicle: saline with Tween-80",98 % of control
CC(=O)NC1C(OC(=O)c2ccccc2)OC2COCOC2C1OC(=O)c1ccccc1 (centres undefined),T/C,"dose: 100.0 mg/kg/injection, schedule: Q01DX001 (ip), vehicle: saline with Tween-80",90 % of control
same,T/C,"dose: 200.0 mg/kg/injection, schedule: Q01DX001 (ip), vehicle: saline with Tween-80",97 % of control
same,T/C,"dose: 400.0 mg/kg/injection, schedule: Q01DX001 (ip), vehicle: saline with Tween-80",92 % of control
CCC(CC)(CCN)c1ccccc1,T/C,[13],90 % of control
same,T/C,[14],93 % of control
